# pIC50: −log10 of the molar value.
# Key:
# P. acnes (ATCC 6919) [1] = assay: Minimal bactericidal concentration (MBC) against P. acnes; assay type: cell-based, Propionibacterium acnes; details: Cutibacterium acnes, ATCC6919; P. acnes 10^7 CFU/mL, in PBS, anaerobic conditions
# IL-8 [2] = assay: Peptidoglycan (PGN)-induced IL-8 on NHEKs; assay type: cell-based, human; details: Homo sapiens; NHEK, PGN 10 μg/mL, 24 hours, ELISA; read-out: PGN-NHEK 1L-8 Protein IC50
# Experimental: (§1) Normal human epidermal keratinocytes (NHEKs) from neonatal donors were obtained from Thermo-Fisher (Cat No. C-001-5C). Cells were cultured in 96-well plates for 24 hours with EpiLife media (Cat No. MEPI500CA) supplemented with keratinocytes growth supplement (Cat No. S0015). On Day 2, media was removed and replaced with supplement-depleted medium for 24 hours. On Day 3, media was removed and cells were pre-treated with test materials (≤1 μM) for 2 hours and later co-treated with test materials and PGN (Sigma Aldrich, Cat No. 77140) at 10 μg/mL and incubated for 24 hours at 37° C. and 5% CO2. PGN is a TLR-2 agonist. After incubation, cell media supernatants were harvested and used to measure pro-inflammatory cytokine levels (IL-8) using ELISA kit (BD Biosciences® #555244). Results were represented as percent of inhibition relative to untreated and PGN-only treated cells. IC50 values were determined by non-linear regression analysis using the four-parameter logistic equation.
# HCAP18 = assay: NHEK antimicrobial peptide gene expression, hCAP18; assay type: cell-based, human; details: 10 μM, 24 hours, qPCR, normalized to GAPDH
# Experimental: (§2) Normal human epidermal keratinocytes (NHEKs) from neonatal donors were obtained from Thermo-Fisher (Cat No. C-001-5C). Cells were cultured in 6-well plates for 24 hours before treatments with EpiLife media (Cat No. MEPI500CA) supplemented with keratinocytes growth supplement (Cat No. 50015). On Day 2, media was removed and incubated with test materials (10 μM) for 24 hours at 37° C. and 5% CO2. On Day 3, total RNA was extracted from cells using the RNAqueous® kit (Ambion®; Cat No. 1912) and cDNA was obtained using the High Capacity RNA-to-cDNA kit (Applied Biosystems®; Cat No. 4387406). Quantitative PCR (qPCR) was performed using the TaqMan® Fast Advanced Master Mix (Applied Biosystems®; Cat No. 4444556) and specific TaqMan®-probes human gene primers DEFB4B (hBD2), DEFB103 (hBD3), HCAP18 and GAPDH to calculate the relative gene fold expression change per treatment. Gene expression analysis was performed using the comparative Ct method (also known as the 2-[delta][delta]Ct) approach by comparing the Ct values of the treated samples with the untreated samples and normalized to GAPDH gene expression as endogenous housekeeping gene. Results were represented as fold-expression/untreated cells.
# TNF-α = assay: P. acnes-induced TNF-α protein on human PBMCs (ELISA); assay type: cell-based; details: PBMCs + live P. acnes 1:1, test material 30 PM, 24 hours
# Experimental: (§3) Cryopreserved human Peripheral Blood Mononuclear cells (PBMCs) from healthy adult donors were obtained from Zen Bio, Inc (Cat No. SER-PBMC-F). Cells were cultured in 12-well plates with lymphocyte media (Cat No. LYMPH-1) and incubated with test materials ([…]) and live P. acnes (ATCC® 6919TM) at 1:1 PBMC: P. acnes bacteria ratio for 24 hours at 37° C. and 5% CO2. After incubation, cell media supernatants were harvested and used to measure pro-inflammatory cytokine levels (IL-8, TNF-α, IL-1b, IL-17) using ELISA kits (BD Biosciences® #557966, #555212, #555244; R&D Systems® #DY317). Total RNA was extracted from cells using the RNAqueous® kit (Ambion®; Cat No. 1912) and cDNA was obtained using the High Capacity RNA-to-cDNA kit (Applied Biosystems®; Cat No. 4387406). Quantitative PCR (qPCR) was performed using the TaqMan® Fast Advanced Master Mix (Applied Biosystems®; Cat No. 4444556) and specific TaqMan®-probes human gene primers CXCL8 (IL-8), IL1B (IL-1b), TNF (TNF-α), IL17A (IL-17A) and GAPDH to calculate the relative gene fold expression change per treatment. Gene expression analysis was performed using the comparative Ct method (also known as the 2-[delta][delta]Ct) approach by comparing the Ct values of P. acnes-only treated cells with the untreated samples and normalized to GAPDH gene expression as endogenous housekeeping gene.
# DEFB103 (hBD3) = assay: NHEK antimicrobial peptide gene expression, hBD3; assay type: cell-based, human; details: 10 μM, 24 hours, qPCR, normalized to GAPDH
# Experimental: as §2
# IL-8 [3] = assay: P. acnes-induced IL-8 protein on human PBMCs (ELISA); assay type: cell-based; details: PBMCs + live P. acnes 1:1, test material 30 PM, 24 hours
# Experimental: as §3
# [4] = tested on: subjects with mild to moderate acne; assay: 8-week clinical study in subjects with mild to moderate acne; assay type: in vivo; set-up: scale not given here; details: E 1% w/w, BPO 3% w/w, human
# Excerpt: Subjects used the assigned product at home for 8 weeks. Subjects returned post baseline at week 2, 4 and 8. At each visit subjects underwent expert clinical grading and test site photography. […] The severity of acne signs and symptoms on the faces of >18 yo subjects were clinically assessed by IGA scale during an 8-week Study period. In addition, UV light mode was utilized to observe porphyrins fluorescence (orange-red dots).
# P. acnes (ATCC 6919) [5] = assay: Minimal inhibitory concentration (MIC) against P. acnes; assay type: cell-based, Propionibacterium acnes; details: Cutibacterium acnes, ATCC6919, 72 h, P. acnes ATCC 6919, 10^6 CFU/mL, read-out: MIC
# Experimental: To determine minimal inhibitory concentration (MIC), reagents were dissolved in vehicle (5% v/v) and then added to bacteria suspension. P. acnes (ATCC® 6919TM) at 10^6 CFU/mL was incubated with test materials at the concentrations of two-fold serial dilution (0.25-500 μg/mL) and incubated for 72 hours (P. acnes).
# DEFB4B (hBD2) = assay: NHEK antimicrobial peptide gene expression, hBD2; assay type: cell-based, human; details: 10 μM, 24 hours, qPCR, normalized to GAPDH
# Experimental: as §2
# IL-17 = assay: P. acnes-induced IL-17 protein on human PBMCs (ELISA); assay type: cell-based; details: PBMC, PBMCs + live P. acnes 1:1, test material 30 PM, 24 hours
# Experimental: as §3
# IL-1b = assay: P. acnes-induced IL-1b protein on human PBMCs (ELISA); assay type: cell-based; details: PBMC, PBMCs + live P. acnes 1:1, test material 30 PM, 24 hours
# Experimental: as §3
# [6] = tested on: P. acnes (ATCC 6919) biofilms; assay: P. acnes biofilm eradication (MBEC), crystal violet; assay type: cell-based, Propionibacterium acnes; details: 24 hours, ≥80% eradication vs vehicle
# Experimental: P. acnes (ATCC® 6919™) was cultured as described above. Bacteria biofilms were established by seeding P. acnes cultures in 96-well plates and incubating for 24 hours without agitation. Later, biofilms were incubated with test materials for 24 hours. Remaining biofilms were washed and stained with crystal violet. […] The absorbance was measured at 595 nm in a microplate reader. […] Results from disk diffusion susceptibility testing (Kirby-Bauer Method) after 72 hours incubation were also obtained.
# IL-13 = assay: Concanavalin-A-induced IL-13 on PBMCs; assay type: cell-based; details: Homo sapiens, PBMC, ConA, 24 hours, ELISA
# IL-8 [7] = assay: TPA-induced IL-8 on NHEKs; assay type: cell-based; details: Homo sapiens; NHEK, TPA 5 ng/mL, 24 hours, ELISA
# Experimental: as §1, with “TPA” for “PGN”, “P8139)” for “77140)”, “5 ng/mL” for “10 μg/mL”, “CO2.” for “CO2. PGN is a TLR-2 agonist.”, “TPA-only” for “PGN-only”
# IL-31 = assay: Anti-CD3/CD28+IL-4-induced IL-31 on PBMCs; assay type: cell-based; details: Homo sapiens, PBMC, anti-CD3/CD28 beads + 50 ng/mL IL-4, 48 hours, ELISA, read-out: TCR/IL-4-PBMCs IL-31 IC50
# Experimental: Cryopreserved human Peripheral Blood Mononuclear cells (PBMCs) from healthy adult donors were obtained from Zen Bio, Inc (Cat No. SER-PBMC-F). Cells were cultured in 96-well plates with lymphocyte media (Cat No. LYMPH-1) and were pre-treated with test materials (≤100 μM) for 2 hours and later co-treated with test materials and anti-CD3/CD28 beads (Thermo-Fisher; Cat No. 11131D) and 50 ng/mL recombinant human IL-4 (R&D Systems® #204-IL) for 48 hours at 37° C. and 5% CO2. After incubation, cell media supernatants were harvested and used to measure cytokine levels (IL-22, IL-31) using ELISA kits (R&D Systems® #DY782, #DY2824). Results were represented as percent of inhibition relative to untreated and anti-CD3/CD28+IL-4 only treated cells. IC50 values were determined by non-linear regression analysis using the four-parameter logistic equation.
# Balb/C mice = assay: Oxazolone-induced delayed-type hypersensitivity (DTH) in vivo model; details: Mus musculus, topical @1%, 24 hours, read-out: Edema % inhibition
# Experimental: Inbred male Balb/C mice were purchased from Hilltop Lab Animals (Scottdale, PA) and were used between 8 and 10 weeks of age. Mice backs were shaved and 100 μl of 3% v/v Oxazolone (Sigma Aldrich, Cat No. E0753) in acetone/olive oil (4:1) was applied to dorsal skin for sensitization. On Day 7, ears were challenged with 0.5% v/v Oxazolone and 30 minutes after challenge, test materials at 3% w/v were applied to ears (10 μl applied both to the dorsal and ventral surfaces of the mouse ear using a solvent pipette) and 24 hours later, skin thickness (edema) was measured. A 6-mm punch biopsy was obtained from each ear, snap frozen in liquid nitrogen. Ear skin biopsy punches were pulverized using FastPrep®-24 Biopulverizer (MP Biomedical, CatNo. 116004500) and Lysing Matrix A tubes (CatNo. 16910050). Protein extracts were obtained using 500 μL/tissue of cold T-PER buffer (ThermoFisher, CatNo. 78510) with Protease inhibitors (Sigma-Aldich, CatNo. 58820-20TAB). Soluble protein fractions were used to measure cytokine levels (IL-4) using ELISA kit (BD Biosciences® #555232). Results were represented as percent of inhibition relative to unsensitized and sensitized-only treated animals. Vehicle for presently disclosed compounds was 60:40 H2O:EtOH and 1:1 Acetone:EtOH for AN2718. (n=5-15 animals per treatment group).
# Compound C was further analyzed at various dosages against 0.4 mg/ear of […] by the above protocol, data representing the average±S.E. of cumulative data from three independent experiments (n=12-15 mice per group) is shown below: […]
# Swiss Webster (ICR) mice = assay: TPA-induced skin irritation in vivo model (mouse ear); details: topical @ 1% w/v, 24 hour
# Experimental: Outbred male Swiss Webster (ICR) mice were purchased from Hilltop Lab Animals (Scottdale, PA) and were used between 10 and 12 weeks of age and we followed a similar protocol previously described (Gordon et al., 2008). Mice received 1.2 μg/20 μl TPA dissolved in acetone (10 μl applied both to the dorsal and ventral surfaces of the mouse ear using a solvent pipette) to each ear to induce acute irritation (6 per group). Test Materials were co-treated with TPA or applied 5 minutes after TPA dose, at various concentrations (0.6 to 800 μg/20 μl) in ethanol. After 24 hour treatment, edema was measured by ear thickness.
SMILES,MBC (P. acnes (ATCC 6919) [1]) [µg/mL],pIC50 (IL-8 [2]),hCAP18 gene expression (HCAP18),TNFa-Protein % inhibition (TNF-α) [%],hBD3 gene expression (DEFB103 (hBD3)),IL-8 Protein % inhibition (IL-8 [3]) [%],MIC (P. acnes (ATCC 6919) [5]) [µg/mL],hBD2 gene expression (DEFB4B (hBD2)),inhibition at 30 pM (IL-17) [%],inhibition at 30 pM (IL-1b) [%],MBEC [6],further results
"O=C(OOC(=O)c1ccccc1)c1ccccc1 [Benzoyl Peroxide, reference compound]",> 200,< 6.00,2.8 Fold-expression/untreated cells,0,1.2 Fold-expression/untreated cells,78,200,1.6 Fold-expression/untreated cells,15,33,367 μg/mL and (1515) μM,Investigator Global Assesment (IGA) Scale ([4]; 2 week): 2; Investigator Global Assesment (IGA) Scale ([4]; 4 week): 1; Investigator Global Assesment (IGA) Scale ([4]; 8 week): 1; Investigator Global Assesment (IGA) Scale ([4]; Baseline): 3
"C=CC[C@@H]1/C=C(\C)C[C@H](C)C[C@H](OC)[C@H]2O[C@@](O)(C(=O)C(=O)N3CCCC[C@H]3C(=O)O[C@H](/C(C)=C/[C@@H]3CC[C@@H](O)[C@H](OC)C3)[C@H](C)[C@@H](O)CC1=O)[C@H](C)C[C@@H]2OC [FK506, reference compound]",–,–,–,–,–,–,–,–,–,–,–,pIC50 (IL-13): 6.22; pIC50 (IL-8 [7]): 8.00; pIC50 (IL-31): 9.40; inhibition in vivo at 1 % (Balb/C mice): 32%; MPO (% inhibition) (Swiss Webster (ICR) mice): 81%; Edema (% inhibition) (Swiss Webster (ICR) mice; ear thickness): 0%
"O=C(O)c1ccccc1O [Salicylic Acid, reference compound]",2000,< 6.00,1.2 Fold-expression/untreated cells,0,1.2 Fold-expression/untreated cells,0,1000,1.0 Fold-expression/untreated cells,0,40,>8000 μg/mL and (>57920) μM,–

# — patent US11802107B2, “Compounds and methods of use” (Signum Biosciences, Inc., priority 2017, dated 2023)
